The text below walks through data of patent publication US5374722A, “Bridged benzazepines” (Schering Corporation, priority 1993, dated 1994).

Experiment [1] concerns conditioned avoidance response (CAR) in rats. In words: animal or person. The experiment is classed as in vivo. The settings on record: Rattus norvegicus.
The next experiment deals with T1, D-2 receptor (Rattus norvegicus, UniProt P61169).
T1 construct: Stdatal tissue is excised, pooled, and homogenized; from tissue; host or cells: striatum of male Sprague-Dawley rats (washed homogenate pellet)
In words: Competitive inhibition assay: displacement of 3H-spiperone (D-2) from rat striatal tissue. Format: binding, rat (male Sprague-Dawley). (Loss of bound radioactivity is the signal in a displacement assay; it reports binding, not function.)

For another experiment, the target named is T2, D-1 receptor (Rattus norvegicus, UniProt P18901).
T2 construct: Stdatal tissue is excised, pooled, and homogenized; from tissue; host or cells: striatum of male Sprague-Dawley rats (washed homogenate pellet)
The experiment is described as follows: Competitive inhibition assay: displacement of tritiated Compound B* (D-1) from rat striatal tissue. The experiment is classed as binding, rat (male Sprague-Dawley).

The mark [2] stands for this setting: po, 1 h, read-out: Rat CAR MED Oral (minimal effective dose).
Where [3] appears, read: 3H-spiperone 0.2 nM, rat striatal tissue, pH 7.4, 37° C., 15 min.
Where [4] appears, read: tritiated compound B 0.3 nM, rat striatal tissue, pH 7.4, 37° C., 15 min.
[5] abbreviates: sc, 0.5 h, read-out: Rat CAR MED sc (minimal effective dose).

Structures can show the parent of a compound that is named as a salt. Where two headings read alike, the source gives them in different places.

T2 sequence (P18901 whole entry): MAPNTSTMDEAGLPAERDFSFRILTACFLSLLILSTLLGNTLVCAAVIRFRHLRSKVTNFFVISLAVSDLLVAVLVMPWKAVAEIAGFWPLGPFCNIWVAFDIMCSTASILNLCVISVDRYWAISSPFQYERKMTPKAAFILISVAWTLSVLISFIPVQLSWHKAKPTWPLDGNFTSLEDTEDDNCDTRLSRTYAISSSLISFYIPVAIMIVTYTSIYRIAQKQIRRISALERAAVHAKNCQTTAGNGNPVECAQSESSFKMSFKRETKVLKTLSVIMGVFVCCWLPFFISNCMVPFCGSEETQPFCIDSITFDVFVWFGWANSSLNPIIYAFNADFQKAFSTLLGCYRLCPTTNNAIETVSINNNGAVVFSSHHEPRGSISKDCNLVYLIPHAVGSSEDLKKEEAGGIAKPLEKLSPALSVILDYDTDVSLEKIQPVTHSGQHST
T1 sequence (P61169 whole entry): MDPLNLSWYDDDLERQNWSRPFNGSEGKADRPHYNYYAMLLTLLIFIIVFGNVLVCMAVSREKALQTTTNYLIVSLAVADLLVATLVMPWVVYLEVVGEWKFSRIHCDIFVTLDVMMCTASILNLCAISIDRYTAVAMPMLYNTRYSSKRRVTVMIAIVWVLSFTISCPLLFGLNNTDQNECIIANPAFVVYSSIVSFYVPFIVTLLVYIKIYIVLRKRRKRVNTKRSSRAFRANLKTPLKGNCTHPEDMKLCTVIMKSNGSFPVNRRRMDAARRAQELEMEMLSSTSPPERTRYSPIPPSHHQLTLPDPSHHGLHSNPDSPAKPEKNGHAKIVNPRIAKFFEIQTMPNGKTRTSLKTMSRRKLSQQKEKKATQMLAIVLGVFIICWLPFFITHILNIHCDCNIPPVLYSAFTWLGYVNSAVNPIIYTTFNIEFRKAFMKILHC

Regarding `Cc1cc2c3c(c1O)CCCC3CN(C)CC2` (stereo not shown) [CH3 H 1 H H H H H, 2,6-Dimethyl-1,2,3,4,8,9,1 0,10a-Octahydro-Naphth[1,8. cd]azepine-7-ol, hydrochloride], the minimal effective dose in experiment [1] (setting [2]) was at most 30 mg/kg. Further, the Ki at D-2 receptor (setting [3]) is 1300 nM; at D-1 receptor it was 37 nM.
In the case of `CN1CCc2ccc(O)c3c2C(CCC3)C1` (stereo not shown) [CH H 1 H H H H H, 2-Methyl-1,2,3,4,8,9, 10,10a-OctahydroNaphth[1,8-cd]azepine-7-ol], the Ki was determined as 3350 nM at D-2 receptor (setting [3]) and 350 nM on D-1 receptor (setting [4]).
Regarding `CN1CCc2c(Cl)c(Cl)c(O)c3c2C(CCC3)C1` (stereo not shown) [Cl Cl 1 H H H H H, 5,6-Dichloro-2-Methyl-1,2,3,4,8,9, 10,10a-octahydronapth[1,8-cd]azepin-7-ol], the minimal effective dose in experiment [1] (setting [2]) came out at 10 mg/kg. Moreover, the results for the Ki on D-2 receptor (setting [3]) and at D-1 receptor were 230 nM and 1.1 nM, respectively.
As for `CN1CCc2cc(Cl)c(O)c3c2C(C1)CC3(C)C` (stereo not shown) [Cl H 0 H CH3 CH3 H H], the minimal effective dose in experiment [1] (setting [5]) was found to be 3 mg/kg. The values for the Ki on D-2 receptor (setting [3]) and on D-1 receptor were 147 nM and 65 nM, respectively.
For the compound `COc1cc(NC(=O)Oc2c(Cl)cc3c4c2CCCC4CN(C)CC3)cc(OC)c1` (stereo not shown) [Cl H 1 3,5-(MeO)2PhNHCO H H H H], the minimal effective dose in experiment [1] (setting [2]) was found to be 10 mg/kg. Further, the Ki turned out to be 405 nM on D-2 receptor and 6.6 nM on D-1 receptor.
In the case of `CC(C)c1ccc(NC(=O)Oc2c(Cl)cc3c4c2CCCC4CN(C)CC3)cc1` (stereo not shown) [Cl H 1 4-i-PrPhNHCO H H H H, 6-Chloro-7-[(4-Isoporpylphenylamino) Carbonyloxy]-2-Methyl-1,2,3,4,8,9,10,10a-Octahydro-Naphth]1,8-cd]azepine, hydrochloride], in experiment [1] (setting [2]), the minimal effective dose is at most 30 mg/kg. The inhibition constant Ki came to 680 nM at D-2 receptor and 51 nM at D-1 receptor.
As for `CN1CCc2cc(Cl)c(O)c3c2C(CCC3c2ccccc2)C1` (stereo not shown) [Cl H 1 H C6H5 H H H], the minimal effective dose in experiment [1] (setting [2]) was above 30 mg/kg; in experiment [1] (setting [5]), above 10 mg/kg. The figures for the Ki on D-2 receptor (setting [3]) and at D-1 receptor (setting [4]) were 42800 nM and 2080 nM, respectively.
Taken in the same sequence, the figures for `CN1CCc2cc(Cl)c(O)c3c2C(CCC3(C)C)C1` (stereo not shown) [Cl H 1 H CH3 CH3 H H, 6-Chloro-2,8.8-Trimethyl-1,2,3,4,8,9,10,10a-Octahydro-Naphth [1,8-cd]azepin-7-ol] were below 30 mg/kg, above 10 mg/kg, 218 nM and 256 nM.
For the compound `CC1CCC2CN(C)CCc3cc(Cl)c(O)c1c32` (stereo not shown) [Cl H 1 H CH3 H H H, 6-chloro-2,8-dimethyl-1.2.3.4.8.9.10.10a-octahydro-naphth [1.8-c.d]azepin-7-ol], the minimal effective dose was found to be 3 mg/kg in experiment [1] (setting [2]) and 0.1 mg/kg in experiment [1] (setting [5]). The Ki was 248 nM on D-2 receptor (setting [3]) and 42 nM at D-1 receptor.
For `CC1=Cc2c(O)c(Cl)cc3c2C(C1)CN(C)CC3` (stereo not shown) [Cl H 1 H H -- CH3 --], in experiment [1] (setting [2]), the minimal effective dose was above 30 mg/kg. The Ki at D-2 receptor (setting [3]) is 264 nM; on D-1 receptor it was 32 nM.
Consider `CC1CCC2CN(C)CCc3cc(Cl)c(O)c1c32` (stereo not shown) [Cl H 1 H H CH3 H H, 6-chloro-2,8-dimethyl-1.2.3.4.8.9.10.10a-octahydro-naphth [1.8-c.d]azepin-7-ol], for which the Ki on D-2 receptor (setting [3]) worked out at 389 nM; on D-1 receptor it was 51 nM.
Taken in the same sequence, the figures for `CC1Cc2c(O)c(Cl)cc3c2C(C1)CN(C)CC3` (stereo not shown) [Cl H 1 H H H CH3 H] were 250 nM and 4.5 nM.
In the case of `CN1CCc2cc(Cl)c(O)c3c2C(CCC3)C1` (stereo not shown) [Cl H 1 H H H H H, 6-Chloro-2-Methyl-1,2,3,4,8,9, 10, 10a-octahydro-naphth [1,8-cd]azepin-7-ol], the minimal effective dose in experiment [1] (setting [2]) was above 30 mg/kg; in experiment [1] (setting [5]), 0.3 mg/kg. Moreover, the inhibition constant Ki at D-2 receptor (setting [3]) was 500 nM; on D-1 receptor it was 6.2 nM.
As for `CN1CCc2cc(Cl)c(O)c3c2C(CCC3O)C1` (stereo not shown) [Cl H 1 H HO H H H], the inhibitory constant (Ki) came to 6590 nM at D-2 receptor (setting [3]) and 110 nM at D-1 receptor (setting [4]).
Consider `CN1CCc2cc(Cl)c(OC(=O)N(C)C)c3c2C(CCC3)C1` (stereo not shown) [Cl H 1 Me2NCO H H H H], for which the minimal effective dose came out at 10 mg/kg in experiment [1] (setting [2]) and 3 mg/kg in experiment [1] (setting [5]). In addition, the Ki stood at 8010 nM at D-2 receptor and 1010 nM on D-1 receptor.
As to `COc1cc(NC(=O)Oc2ccc3c4c2C(C)CCC4CN(C)CC3)cc(OC)c1` (stereo not shown) [H H 1 3,5-(MeO)2PhNHCO CH3 H H H], in experiment [1] (setting [2]), the minimal effective dose was above 30 mg/kg. Further, the Ki at D-2 receptor was 337 nM; at D-1 receptor, 35 nM.
For `CC(C)c1ccc(NC(=O)Oc2ccc3c4c2C(C)CCC4CN(C)CC3)cc1` (stereo not shown) [H H 1 4-iPrPhNHCO CH3 H H H], in that order: above 30 mg/kg, 420 nM and 134 nM.

The minimal effective dose is the smallest amount tested that counted as effective. In general, Ki refers to a dissociation constant, usually derived from enzyme kinetics or from competition with a known ligand.
